Assay results from patent US20140221490A1, “METHODS OF TREATING PAIN” (Hospira, Inc., priority 2011, published 2014).
Where “and” joins values, the source holds several entries; their conditions need not be identical. Identical values can stand only once.

Assays:
[1] = cited from earlier work
[2] = test system: acute moderate to severe pain after abdominal or pelvic surgery; assay: Multiple-dose randomized double-blind active- and placebo-controlled trial after abdominal or pelvic surgery: efficacy (SPID, pain relief, rescue morphine, patient global evaluation); assay type: in vivo, human
Method: A 331 multicenter, multiple-dose, multiple-day, randomized, double-blind, parallel-group study was conducted on patients who had undergone abdominal or pelvic surgery. Patients were randomly assigned to 18.75 mg of diclofenac, 37.5 mg of diclofenac, 30 mg ketorolac, or placebo (1:1:1:1 ratio). The diclofenac formulation was Dyloject™. The patients selected for the study had moderate to severe pain within 6 hours postoperatively, defined as pain intensity of at least 50 mm on a 0-100 VAS.
At 16 U.S. sites, adults 18-65 years old were screened if they were scheduled for abdominal or pelvic surgery within 2 weeks. Key inclusion criteria were moderate-to-severe postoperative pain, defined as intensity≧50 mm on a 0-100 mm visual analog scale (VAS) within 6 hours after surgery, and weight>50 kg. Exclusion criteria were applied to the preoperative, intraoperative, and postoperative periods. Key preoperative exclusion criteria were a history of chronic disease or severe asthma, a recent (≦6 months) cardiovascular event or clinically-significant abnormal electrocardiogram (ECG) at screening, consumption of aspirin (except <325 mg/day for antiplatelet cardiac protection), opioids, other NSAIDs, other common analgesics, major and minor tranquilizers, or antihistamines≦24 hours before study drug initiation (except if administered during surgery), consumption of a monoamine oxidase inhibitor, tryptophan, carbamazepine, or valproate≦2 weeks before baseline, any clinically-significant laboratory abnormality, and previous or present peptic ulceration, gastrointestinal (GI) bleeding, or any bleeding diathesis. In addition, long-acting NSAIDs or COX-2 inhibitors were to be discontinued 3 days before surgery. Subjects were also excluded in the event of a known allergy to diclofenac, NSAIDs, morphine, anesthetics, or any excipient of the study preparation, receipt of any other investigational medication within 3 months prior to administration of the study drug, known or suspected alcohol or drug abuse, and unwillingness to remain in the clinical research center for 2 nights or return within 5-9 days for a safety follow-up visit. Female subjects with a positive pregnancy test within 24 hours of surgery or who were lactating at screening were also excluded. Intraoperative exclusion criteria were subcostal incision during surgery and concomitant use of NSAIDs or acetaminophen (other intraoperative medications were not restricted). Subjects with abnormal postoperative baseline ECG were excluded from study participation. In addition, patient-controlled analgesia (PCA) was not permitted before or during study drug dosing. Nitrous oxide and very short-acting barbiturates or benzodiazepines were allowed, provided that there was a ≧1.5-hour washout period before study drug administration, to avoid residual effects on pain intensity assessments. […] Postoperative regional anesthesia was not allowed.
This was a multicenter, multiple-dose, multiple-day, randomized, double-blind, active- and placebo-controlled, parallel-group phase 3 study. […] Assignments were made according to a computer-generated random-number code, and clinical staff and patients were blinded to study drug assignment. The first dose of study medication (1 mL IV bolus) was received by patients in all treatment arms within this first 6-hour period (Table 4).
Administration of the first dose of study drug was taken as time 0, and all subsequent dosing and evaluation time points were in relation to time of first study drug dose. Subsequent injections were received every 6 hours until discharge or until patient withdrawal/discontinuation from the study, due either to an adverse event (AE), inadequate pain control, noncompliance with the study protocol, or at the investigator's discretion. […]

[3] = test system: patients after orthopedic surgery; assay: Orthopedic surgery trial: safety (adverse events); assay type: in vivo, human
Method: The diclofenac formulation was Dyloject™. […] Adverse events (adverse effects) were recorded between surgery and randomization, not just after baseline, in order to distinguish treatment-emergent adverse events.
Those who remained at the site longer assessed their pain every 3 hours until discharged. […] Adverse events (AEs) were recorded between surgery and randomization, not just after baseline, in order to distinguish treatment-emergent AEs.

[4] = diclofenac n = 145, ketorolac n = 60

For O=C(c1ccccc1)c1ccc2n1CCC2C(=O)O (stereo not shown) [Ketorolac, ketorolac tromethamine], the “Vd, volume of distribution” value [1] is given as 0.21 L/kg, the “Prot. bind., drug fraction bound to protein (fP)” value ([1]; plasma) is given as 99% and the Cmax ([1]; read-out: Cmax, maximum drug concentration in plasma, based on the drug's pharmacokinetics and administration of a normal drug dose) is given as 1800 nM. For the same molecule, the “Cumulative Amount of Rescue Medication, Mean (SD)” value (from here on “Cumulative Amount … (SD)”) ([2]; 0 to 24 hours, 30 mg (N = 82)) was 6.7 (7.74) mg, the “Opioid sparing vs. placebo” value ([2]; 0 to 24 hours, 30 mg (N = 82)) was 40% and the “Cumulative Amount … (SD)” value ([2]; 0 to 48 hours, 30 mg (N = 82)) was 8.5 (10.00) mg. The “Opioid sparing vs. placebo” value ([2]; 0 to 48 hours, 30 mg (N = 82)) was 46%, the “Cumulative Amount … (SD)” value ([2]; 0 to 72 hours, 30 mg (N = 82)) was 8.5 (10.04) mg and the “Opioid sparing vs. placebo” value ([2]; 0 to 72 hours, 30 mg (N = 82)) was 47%. For the same molecule, the “Cumulative Amount … (SD)” value ([2]; 0 to 72 hours, 30 mg (N = 82), listed as ketorolac) was 8.5 mg, the “Sum of the Pain Intensity Differences Over 0-48 Hours, Mean” value ([2]; 30 mg (N = 82)) was 1583.2 mm·hours and the “patients with at least a 30% reduction in pain intensity” value ([2]; at 45 minutes after study drug initiation, 30 mg) was 57%. For the same molecule, the “patients with ≧30% reduction in pain intensity” value ([2]; during the first 6-hour dosing period, 30 mg) was 76.8%, the “Acute Renal Failure/Renal Insufficiency” value [3, 4] was 0 n (%) and the “Acute Tubular Necrosis” value [3, 4] was 0 n (%). For the same molecule, the Anemia [3, 4] was 9 (15.0%) n (%), the “Blood creatine phosphokinase (CPK) increase” value [3, 4] was 8 (13.3%) n (%) and the Constipation [3, 4] was 6 (10.0%) n (%). For the same molecule, the Contusion [3, 4] was 2 (3.3%) n (%), the Dizziness [3, 4] was 5 (8.3%) n (%) and the “Dysuria (burning, difficulty urinating)” value [3, 4] was 1 (1.7%) n (%). The Epistaxis [3, 4] was 0 n (%), the Fever/increase body temp. [3, 4] was 5 (8.3%) n (%) and the Nausea [3, 4] was 18 (30.0%) n (%). For the same molecule, the “Total Bleeding related adverse events” value [3, 4] was 13 (21.7%) n (%), the “Total GI-Related Adverse Events” value [3, 4] was 24 (40.0%) n (%) and the “Total Renal-Related Adverse Events” value [3, 4] was 1 (1.7%) n (%). The “Urinary Retention” value [3, 4] was 0 n (%), the Vomiting [3, 4] was 6 (10.0%) n (%) and the “incidence of bleeding-related adverse effects” value ([3]; in vivo) was 23% and 22%. The “serious cardiovascular event: congestive heart failure” value ([3]; one of 60 patients, not considered treatment-related) was 1.7%.
